Results from ChEMBL document CHEMBL1800001, “Biophysical mapping of the adenosine A2A receptor” (J Med Chem, 2011).

Columns and labels:
Adenosine receptor A2a [1] = target: T1, Adenosine receptor A2a (Homo sapiens, UniProt P29274); test: Displacement of [3H]ZM241385 from wild type human adenosine receptor A2a expressed in HEK293 cells
Adenosine receptor A2a [2] = target: T1, Adenosine receptor A2a; test: Displacement of [3H]ZM241385 from stabilized human adenosine receptor A2a expressed in HEK293 cells followed by receptor capturing on Biocore chips by SPR method

T1 sequence (P29274 whole entry, looked up): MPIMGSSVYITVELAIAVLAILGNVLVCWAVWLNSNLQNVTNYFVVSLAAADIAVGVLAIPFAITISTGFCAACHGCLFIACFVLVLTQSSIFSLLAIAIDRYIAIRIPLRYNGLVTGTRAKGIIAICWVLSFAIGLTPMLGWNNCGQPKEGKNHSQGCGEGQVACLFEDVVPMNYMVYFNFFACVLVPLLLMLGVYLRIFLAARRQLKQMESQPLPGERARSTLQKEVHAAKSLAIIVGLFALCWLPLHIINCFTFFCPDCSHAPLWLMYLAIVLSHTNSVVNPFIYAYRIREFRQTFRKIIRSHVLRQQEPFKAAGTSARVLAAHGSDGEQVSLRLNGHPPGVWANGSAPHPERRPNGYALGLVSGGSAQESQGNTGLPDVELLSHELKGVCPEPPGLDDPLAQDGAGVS

Row | pKi (Adenosine receptor A2a [1]) | pKd (Adenosine receptor A2a [2]) | SMILES
1 | 7.9 | 6 | Nc1nc(-c2ccccc2O)nc(N2Cc3ccc(F)cc3C2)n1
2 | 9 | 7.9 | CN1CCN(C(=O)c2cccc(-c3nc(N)nc(-c4ccccc4O)n3)c2)CC1
3 | 8.8 | 9.5 | COCCOc1ccc(N2CCN(CCn3ncc4c3nc(N)n3nc(-c5ccco5)nc43)CC2)cc1 [PRELADENANT]
